Patent US5292751A, “5,7-dihydroxy-2-methyl-8-(4-(3-hydroxy-1-(1-propyl))pip eridinyl)-4H-1-benzopyran-4-one, its preparation and its use” (priority 1991, dated 1994)
Read-outs that look alike come from different tables or passages of the source.

Experiments:
[1] = in vivo; conditions: po, rat
[2] = assay type: in vivo; conditions: for Therapeutic index (LD50 ED50): LD50 over carrageenin ED50
Experimental: 1. Acute inflammation model:
Systemic anti-inflammatory action on carrageenin-induced paw oedema in rats.
Male Charles Foster rats (120-150 g) were fasted for 18 hours, with water ad libitum. The test compound suspended in Tween^R 80 and 0.5% C.M.C. was administered orally. The control group received Tween 80 and 0.5% C.M.C. 0.05 ml of 0.5% carrageenin suspension was injected subcutaneously into the plantar region of the left hind paw. Using a Maclab differential volume meter, the paw volume was determined before the carrageenin injection and 3 and 6 hours after the injection. The percentage decrease in paw volume was calculated by the following equation: [formula] The ED50 value was calculated from the dose/response curve. Six animals were used for each group.

[3] = in vivo; assay type: in vivo; conditions: for potentiation of the secondary arthritic response: p.o. per day
Experimental: 2. Adjuvant induced arthritis (developing) in Rats
Female Charles Foster rats weighing 150-180 g were sorted into groups (10 rats/group). Each animal received 10 μl of 1% suspension of mycobacterium tuberculli in paraffin oil, intradermally, at the base of the tail. Drug treatment was instituted on the day of the induction of arthritis and continued for 21 days. The body weight of each rat was noted prior to the adjuvant suspension injection and subsequently all throughout for 21 days. Volumes of both hind paws were recorded on the day of injection and subsequently from 7 days onwards till the end of the experiment.

[4] = rat, p.o., carrageenin paw oedema, from dose/response curve

Row | SMILES | LD50 [1] [mg/kg] | therapeutic index, comparison in words ([2]; compared with compounds B and C) | ED50, mg/kg p.o. [2, 4] [mg/kg] | Therapeutic index (LD50 ED50) ([2]; rat, p.o.) | deaths or toxic side effects ([3]; 30 mg/kg, p.o./day, 21 days) | inhibition of adjuvant arthritis ([3]; 1.25, 2.5, 5 and 10 mg/kg/day, p.o., 21 days) | ED50, mg/kg p.o. ([2]; po) [mg/kg] | potentiation of the secondary arthritic response ([3]; 3 mg/kg) [%] | potentiation of the secondary arthritic response ([3]; 9 mg/kg) [%] | symptoms of cytotoxicity ([3]; 18 mg/kg, p.o./day) | inhibition of adjuvant arthritis ([3]; 18 mg/kg, p.o./day, may be due to toxicity) | response in adjuvant arthritis ([3]; 3, 9, 18 and 27 mg/kg/day p.o., 21 days) | therapeutic range ([3]; p.o., daily dosing) | inhibition of adjuvant arthritis ([3]; 0.1, 1 and 10 mg/kg, p.o., 21 days) | mortality ([3]; rat, in vivo, po, 10 mg/kg/day, 10 mg/kg, p.o./day, between 9th and 11th day of administration) [%]
1 | CCCN1CC[C@H](c2c(O)cc(O)c3c(=O)cc(C)oc23)[C@H](O)C1 (single isomer, unassigned) [Compound A] | 650 | favourable therapeutic index over compounds B and C | 20.0 | 32.5 | No deaths or toxic side effects were observed | dose-dependent and significant inhibition | – | – | – | – | – | – | – | – | –
2 | Cc1cc(=O)c2c(O)cc(O)c(C3CCN(C)CC3O)c2o1 (stereo not drawn) [Compound B] | – | – | – | – | – | – | 9.0 | 58.6 | 64.9 | weight loss and severe diarrhoea | significant inhibition | biphasic response | narrow therapeutic range | – | –
3 | CN1CCC(c2c(O)cc(O)c3c(=O)cc(-c4ccccc4)oc23)C(O)C1 (stereo not drawn) [Compound C] | 27 | – | 1.3 | 20.76 | – | – | – | – | – | – | – | – | – | No inhibition of adjuvant arthritis was seen at any of the doses tested | 50
